Measurements published in patent US11434242B2, “Dopamine-b-hydroxylase inhibitors” (BIAL-PORTELA & Cª, S.A., priority 2017, dated 2022).

Biological target: T1, Dopamine beta hydroxylase (Homo sapiens, UniProt P09172)
T1 construct: 125 μl of plasma; tissue Instituto Português do Sangue Transplantação; host or cells: human plasma from healthy donors
T1 sequence (P09172 40-617 limits assumed): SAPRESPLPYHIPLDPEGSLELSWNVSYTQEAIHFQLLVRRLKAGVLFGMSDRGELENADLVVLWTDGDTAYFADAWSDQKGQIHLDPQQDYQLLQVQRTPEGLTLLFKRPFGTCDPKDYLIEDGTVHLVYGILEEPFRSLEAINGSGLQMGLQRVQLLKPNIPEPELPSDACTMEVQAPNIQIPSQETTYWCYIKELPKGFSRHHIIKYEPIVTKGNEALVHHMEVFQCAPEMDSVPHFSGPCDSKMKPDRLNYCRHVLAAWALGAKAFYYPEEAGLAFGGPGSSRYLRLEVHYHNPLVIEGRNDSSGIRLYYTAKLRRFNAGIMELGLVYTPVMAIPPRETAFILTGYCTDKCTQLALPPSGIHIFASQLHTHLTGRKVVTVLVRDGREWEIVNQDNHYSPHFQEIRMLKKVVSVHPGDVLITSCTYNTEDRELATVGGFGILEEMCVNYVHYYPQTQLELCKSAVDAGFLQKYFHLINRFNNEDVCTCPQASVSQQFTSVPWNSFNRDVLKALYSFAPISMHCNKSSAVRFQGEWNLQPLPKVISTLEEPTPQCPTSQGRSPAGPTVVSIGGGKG
Test: Dopamine beta hydroxylase activity in human plasma
Format: biochemical
Conditions: for Plasma (0.01 μM), activity in % of control: inhibitor 0.01 μM; for Plasma (0.1 μM), activity in % of control: inhibitor 0.1 μM; for Plasma (1 μM), activity in % of control: inhibitor 1 μM
How it was run: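 Octopamine production from tyramine over 45 min at 37° C, measured photometrically at 330 nm after SCX extraction and periodate oxidation against an octopamine standard curve, indicates plasma DβH activity. Compounds tested at final 10, 100 and 1000 nM in human plasma, pH 5.0 cofactor buffer, 10 min preincubation; results as % of control.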

SMILES: O=C(Cc1[nH]c(=S)n2c1C[C@@H](c1c(F)ccc(Br)c1F)C2)NCc1cccnc1 [Example 124, (S)-2-(6-(3-bromo-2,6-difluorophenyl)-3-thioxo-2,5,6,7-tetrahydro-3H-pyrrolo[1,2-c]imidazol-1-yl)-N-(pyridin-3-ylmethyl)acetamide]
- Plasma (0.01 μM), activity in % of control: 42.8 % of control
- Plasma (0.1 μM), activity in % of control: 3.3 % of control

SMILES: O=C(Cc1[nH]c(=S)n2c1C[C@H](c1c(F)ccc(Br)c1F)C2)N1CCS(=O)(=O)CC1 [Example 125, (R)-2-(6-(3-bromo-2,6-difluorophenyl)-3-thioxo-2,5,6,7-tetrahydro-3H-pyrrolo[1,2-c]imidazol-1-yl)-1-(1,1-dioxidothiomorpholino)ethan-1-one]
- Plasma (0.01 μM), activity in % of control: 106.5 % of control
- Plasma (0.1 μM), activity in % of control: 43.7 % of control

SMILES: CS(=O)(=O)C1CCN(C(=O)Cc2[nH]c(=S)n3c2C[C@H](c2c(F)ccc(Br)c2F)C3)CC1 [Example 126, (R)-2-(6-(3-bromo-2,6-difluorophenyl)-3-thioxo-2,5,6,7-tetrahydro-3H-pyrrolo[1,2-c]imidazol-1-yl)-1-(4-(methylsulfonyl)piperidin-1-yl)ethan-1-one]
- Plasma (0.01 μM), activity in % of control: 100.2 % of control
- Plasma (0.1 μM), activity in % of control: 40.2 % of control

SMILES: C[C@@H](NC(=O)Cc1[nH]c(=S)n2c1C[C@H](c1c(F)ccc(Br)c1F)C2)C1CCCCC1 [Example 127, 2-((R)-6-(3-bromo-2,6-difluorophenyl)-3-thioxo-2,5,6,7-tetrahydro-3H-pyrrolo[1,2-c]imidazol-1-yl)-N—((R)-1-cyclohexylethyl)acetamide]
- Plasma (0.01 μM), activity in % of control: 81.3 % of control
- Plasma (0.1 μM), activity in % of control: 83.8 % of control

SMILES: CN(C(=O)Cc1[nH]c(=S)n2c1C[C@H](c1c(F)ccc(Br)c1F)C2)C1CCOCC1 [Example 128, (R)-2-(6-(3-bromo-2,6-difluorophenyl)-3-thioxo-2,5,6,7-tetrahydro-3H-pyrrolo[1,2-c]imidazol-1-yl)-N-methyl-N-(tetrahydro-2H-pyran-4-yl)acetamide]
- Plasma (0.01 μM), activity in % of control: 98.1 % of control
- Plasma (0.1 μM), activity in % of control: 29.7 % of control

SMILES: O=C(Cc1[nH]c(=S)n2c1C[C@H](c1c(F)c(F)cc(F)c1F)C2)NC1CCS(=O)(=O)CC1 [Example 129, (R)—N-(1,1-dioxidotetrahydro-2H-thiopyran-4-yl)-2-(6-(2,3,5,6-tetrafluorophenyl)-3-thioxo-2,5,6,7-tetrahydro-3H-pyrrolo[1,2-c]imidazol-1-yl)acetamide]
- Plasma (0.01 μM), activity in % of control: 50.1 % of control
- Plasma (0.1 μM), activity in % of control: 10.3 % of control

SMILES: O=C(Cc1[nH]c(=S)n2c1C[C@H](c1c(F)ccc(Br)c1F)C2)NC1CCS(=O)(=O)CC1 [Example 130, (R)-2-(6-(3-bromo-2,6-difluorophenyl)-3-thioxo-2,5,6,7-tetrahydro-3H-pyrrolo[1,2-c]imidazol-1-yl)-N-(1,1-dioxidotetrahydro-2H-thiopyran-4-yl)acetamide]
- Plasma (0.01 μM), activity in % of control: 55.7 % of control
- Plasma (0.1 μM), activity in % of control: 8.4 % of control

SMILES: CN(CCO)C(=O)Cc1[nH]c(=S)n2c1C[C@H](c1c(F)ccc(Br)c1F)C2 [Example 131, (R)-2-(6-(3-bromo-2,6-difluorophenyl)-3-thioxo-2,5,6,7-tetrahydro-3H-pyrrolo[1,2-c]imidazol-1-yl)-N-(2-hydroxyethyl)-N-methylacetamide]
- Plasma (0.01 μM), activity in % of control: 89.8 % of control
- Plasma (0.1 μM), activity in % of control: 50.5 % of control

SMILES: CN(C(=O)Cc1[nH]c(=S)n2c1C[C@H](c1c(F)ccc(Br)c1F)C2)C1CCCCC1 [Example 132, (R)-2-(6-(3-bromo-2,6-difluorophenyl)-3-thioxo-2,5,6,7-tetrahydro-3H-pyrrolo[1,2-c]imidazol-1-yl)-N-cyclohexyl-N-methylacetamide]
- Plasma (0.01 μM), activity in % of control: 91.9 % of control
- Plasma (0.1 μM), activity in % of control: 62.3 % of control

SMILES: CC(C)NC(=O)Cc1[nH]c(=S)n2c1C[C@H](c1c(F)ccc(Br)c1F)C2 [Example 133, (R)-2-(6-(3-bromo-2,6-difluorophenyl)-3-thioxo-2,5,6,7-tetrahydro-3H-pyrrolo[1,2-c]imidazol-1-yl)-N-isopropylacetamide]
- Plasma (0.01 μM), activity in % of control: 95.9 % of control
- Plasma (0.1 μM), activity in % of control: 82.4 % of control

SMILES: CN(Cc1cccnc1)C(=O)Cc1[nH]c(=S)n2c1C[C@@H](c1c(F)ccc(Cl)c1F)C2 [Example 134, (S)-2-(6-(3-chloro-2,6-difluorophenyl)-3-thioxo-2,5,6,7-tetrahydro-3H-pyrrolo[1,2-c]imidazol-1-yl)-N-methyl-N-(pyridin-3-ylmethyl)acetamide]
- Plasma (0.01 μM), activity in % of control: 24.9 % of control
- Plasma (0.1 μM), activity in % of control: 3.2 % of control

SMILES: CS(=O)(=O)C1CCN(C(=O)Cc2[nH]c(=S)n3c2C[C@H](c2c(F)ccc(Br)c2F)C3)C1 (stereo partly drawn) [Example 135, 2-((R)-6-(3-bromo-2,6-difluorophenyl)-3-thioxo-2,5,6,7-tetrahydro-3H-pyrrolo[1,2-c]imidazol-1-yl)-1-(3-(methylsulfonyl)pyrrolidin-1-yl)ethan-1-one]
- Plasma (0.01 μM), activity in % of control: 88.3 % of control
- Plasma (0.1 μM), activity in % of control: 58.1 % of control

SMILES: O=C(Cc1[nH]c(=S)n2c1C[C@@H](c1c(F)ccc(Br)c1F)C2)N1CCS(=O)(=O)CC1 [Example 136, (S)-2-(6-(3-bromo-2,6-difluorophenyl)-3-thioxo-2,5,6,7-tetrahydro-3H-pyrrolo[1,2-c]imidazol-1-yl)-1-(1,1-dioxidothiomorpholino)ethan-1-one]
- Plasma (0.01 μM), activity in % of control: 44.3 % of control
- Plasma (0.1 μM), activity in % of control: 6.8 % of control

SMILES: O=C(Cc1[nH]c(=S)n2c1C[C@@H](c1c(F)ccc(Br)c1F)C2)N1CCSCC1 [Example 137, (S)-2-(6-(3-bromo-2,6-difluorophenyl)-3-thioxo-2,5,6,7-tetrahydro-3H-pyrrolo[1,2-c]imidazol-1-yl)-1-thiomorpholinoethan-1-one]
- Plasma (0.01 μM), activity in % of control: 72.9 % of control
- Plasma (0.1 μM), activity in % of control: 21.5 % of control

SMILES: O=C(Cc1[nH]c(=S)n2c1C[C@@H](c1c(F)ccc(Br)c1F)C2)N1CCC2(CCOC2)C1 (stereo partly drawn) [Example 138, 2-((S)-6-(3-bromo-2,6-difluorophenyl)-3-thioxo-2,5,6,7-tetrahydro-3H-pyrrolo[1,2-c]imidazol-1-yl)-1-(2-oxa-7-azaspiro[4.4]nonan-7-yl)ethan-1-one]
- Plasma (0.01 μM), activity in % of control: 46.6 % of control
- Plasma (0.1 μM), activity in % of control: 5.0 % of control

SMILES: O=C(Cc1[nH]c(=S)n2c1C[C@H](c1c(F)ccc(Br)c1F)C2)NCc1ccccn1 [Example 139, (R)-2-(6-(3-bromo-2,6-difluorophenyl)-3-thioxo-2,5,6,7-tetrahydro-3H-pyrrolo[1,2-c]imidazol-1-yl)-N-(pyridin-2-ylmethyl)acetamide]
- Plasma (0.01 μM), activity in % of control: 77.8 % of control
- Plasma (0.1 μM), activity in % of control: 20.8 % of control

SMILES: O=C(Cc1[nH]c(=S)n2c1C[C@@H](c1c(F)ccc(Br)c1F)C2)N1CCOCC1 [Example 140, (S)-2-(6-(3-bromo-2,6-difluorophenyl)-3-thioxo-2,5,6,7-tetrahydro-3H-pyrrolo[1,2-c]imidazol-1-yl)-1-morpholinoethan-1-one]
- Plasma (0.01 μM), activity in % of control: 73.1 % of control
- Plasma (0.1 μM), activity in % of control: 26.8 % of control

SMILES: O=C(Cc1[nH]c(=S)n2c1C[C@H](c1c(F)ccc(Br)c1F)C2)N1CCOCC1 [Example 141, (R)-2-(6-(3-bromo-2,6-difluorophenyl)-3-thioxo-2,5,6,7-tetrahydro-3H-pyrrolo[1,2-c]imidazol-1-yl)-1-morpholinoethan-1-one]
- Plasma (0.01 μM), activity in % of control: 93.2 % of control
- Plasma (0.1 μM), activity in % of control: 76.1 % of control

SMILES: O=C(Cc1[nH]c(=S)n2c1[C@@H]1C[C@]1(c1c(F)ccc(Cl)c1F)C2)NCCn1cccn1 [Example 142, N-(2-(1H-pyrazol-1-yl)ethyl)-2-((5aS,6aR)-5a-(3-chloro-2,6-difluorophenyl)-3-thioxo-2,3,5,5a,6,6a-hexahydrocyclopropa[3,4]pyrrolo[1,2-c]imidazol-1-yl)acetamide]
- Plasma (0.01 μM), activity in % of control: 60.0 % of control
- Plasma (0.1 μM), activity in % of control: 16.2 % of control

SMILES: O=C(Cc1[nH]c(=S)n2c1[C@@H]1C[C@]1(c1cc(Br)ccc1F)C2)NCC1CC1 [Example 143, 2-((5aS,6aR)-5a-(5-bromo-2-fluorophenyl)-3-thioxo-2,3,5,5a,6,6a-hexahydrocyclopropa[3,4]pyrrolo[1,2-c]imidazol-1-yl)-N-(cyclopropylmethyl)acetamide]
- Plasma (0.1 μM), activity in % of control: 20.1 % of control
- Plasma (1 μM), activity in % of control: 0.2 % of control

SMILES: N#CCNC(=O)Cc1[nH]c(=S)n2c1[C@@H]1C[C@]1(c1cc(Br)ccc1F)C2 [Example 144, 2-((5aS,6aR)-5a-(5-bromo-2-fluorophenyl)-3-thioxo-2,3,5,5a,6,6a-hexahydrocyclopropa[3,4]pyrrolo[1,2-c]imidazol-1-yl)-N-(cyanomethyl)acetamide]
- Plasma (0.1 μM), activity in % of control: 14.7 % of control
- Plasma (1 μM), activity in % of control: 0.1 % of control
